# Where two headings read alike, the source gives them in different places.
# Assays:
# [1] = test system: cultures of the anther of tetraploid (pasta) wheat; conditions: cited from earlier work
# [2] = test system: callus cultures in hexaploid wheat; conditions: cited from earlier work
# [3] = test system: wheat scutellar tissues; experiment: Recovery of transgenic wheat lines and plant escapes after particle bombardment, with 100 μM copper in regeneration medium; format: cell-based
# [4] = test system: wheat embryogenic calluses induced from scutellar tissues; experiment: Shoot regeneration from embryogenic calluses on RZ regeneration medium supplemented with CuSO4; format: cell-based; conditions: for optimum range of copper concentration: number of plants regenerated per callus
# Method: The primary culture explants were immature embryos or scutella. Wheat caryopses containing early-medium milk-stage grains with translucent embryos were harvested and surface-sterilised in 70% ethanol for 5 min and 0.5% hypochlorite solution for 15 min. Under aseptic conditions, embryos of approximately 0.5-1.0 mm length were isolated and either cultured entirely or the embryo axes were removed to produce isolated scutella. Thirty embryos/scutella were placed in the center (18 mm target circle) of a 90 mm Petri dish containing callus induction medium. The callus induction medium for embryos/scutellar tissues, called MD0.5, consisted of solidified (0.5% […], Sigma A3301) modified MS medium supplemented with 9% sucrose, 10 mg l^-1 AgNO3 and 0.5 mg l^-1 2,4-D (Rasco-Gaunt et al., 2001 J. Exp. Bot. 52 (357): 865-874). Embryos/scutella were placed with the embryo-axis side in contact with the medium. Cultures were incubated at 25±1° C. in darkness for approximately 24 hr before bombardment. Embryogenic calluses were transferred, for regeneration, to RZ regeneration medium and cultured under 12 h light (250 μE s^-1 m^-2, from cool white fluorescent tubes) at 25+1° C. for three weeks. The RZ regeneration medium, contained L salts, vitamins and myo-inositol, 3% w/v maltose, 0.1 mg l^-1 2,4-D and 5 mg l^-1 zeatin (Rasco-Gaunt and Barcelo, 1999 Plant Cell Culture Protocols. Methods in Molecular Biology series. Hall, RD ed. 111: 71-81, Humana Press, Totowa NJ) and CuSO4 at concentrations ranging from 0 to 1000 μM. The supplementation of silver nitrate in the range of 1-20 mg l^-1 is optional. Selection agents such as 2-6 mg l^-1 Glufosinate ammonium (Greyhound, United Kingdom) and 10-500 ppm sulfonylurea herbicide e.g. Nicosulfuron (DuPont, France) and Rimsulfuron (DuPont, France) were incorporated in RZ regeneration medium. A second three-week culture passage on the same medium was performed as required, with or without a selection agent. Following culture on RZ regeneration medium, plantlets were cultured for one or two three-week passages on R0 medium (RZ without hormones, AgNO3 and CuSO4 supplementation), with or without the selection agent. To determine the effects of increased copper concentration on shoot regeneration, embryogenic calluses were subcultured onto RZ regeneration medium (see Example 1) supplemented with CuSO4 at concentrations ranging from 0 to 1000 μM. Prior to transfer onto RZ regeneration medium, calluses were induced from scutellar tissues. Procedures for the growth of donor plant materials, isolation of explants and culture initiation are described in Example 1. Following culture on CuSO4 medium, the calluses were transferred to R0 medium (see Example 1). After three weeks, regeneration frequencies of calluses, average number of plant per callus, as well as shoot quality were noted. Regeneration frequency is calculated as the number of shoot-producing calluses divided by the total number of scutella isolated. Percent (%) regeneration is […] multiplied by 100.
# [5] = 100 μM copper, PPT selection, different genotypes (Example 4)
smiles,measurement,setting,value
O=S(=O)([O-])[O-].[Cu+2] [CuSO4],production of embryoid from anthers versus control treatment,"[1]; 20 or 40 μM CuSO4, three of four genotypes",increased
same,embryoid production,"[1]; fourth genotype, all levels tested (10, 20 or 40 μM)",reduced
same,production of green plants versus control media,"[1]; over the four genotypes, copper-containing media",lower
same,regeneration rates relative to original MS copper level (0.1 μM),"[2]; 10 μM CuSO4, Purnhauser 1991",eight times higher
same,optimum Cu level,"[2]; ""more detailed"" studies cited in Purnhauser 1991",2 µM
same,optimum Cu level,[2]; Purnhauser 1991 study,10 µM
same,maximum regeneration frequency achieved,"[2]; optimum 10 μM Cu, single breeding line, Purnhauser 1991",59%
same,transformation frequency,"[3]; 100 μM CuSO4, Cadenza and NH535, PPT and sulfonylurea selection systems",improved
same,frequency of plant escapes,[3]; [5],did not have an important effect
same,recovery of transformants / transformation efficiencies,[3]; [5],improved
same,plant escape frequency,"[3]; 100 μM copper, plasmid pHP8092, PPT selection, varieties Cadenza and NH535",slightly higher
same,plant escapes,"[3]; 100 μM copper, variety Cadenza, PPT selection, constructs p15629 and pAHC20",clear reduction
same,escape frequency,"[3]; 100 μM copper, variety NH535, sulfonylurea selection, construct pML146",higher
same,shoot quality,"[4]; copper levels up to 500 μM, Riband and Imp, versus control 0.1 μM copper",vigorous and prolific
same,optimum range of copper concentration,[4]; variety Eole,100 to 150 µM
same,optimum range of copper concentration,[4]; variety NH535,100 to 200 µM
same,regeneration frequencies,"[4]; wheat variety Eole, CuSO4 levels up to 300 μM",100%
same,Plant regeneration frequency,"[4]; wheat variety Imp, CuSO4 levels up to 300 μM",100%
same,regeneration frequencies,"[4]; wheat variety NH535, CuSO4 levels up to 300 μM",100%
same,Plant regeneration frequency,"[4]; wheat variety Riband, levels up to 500 μM CuSO4",100%
same,effect on regeneration frequency,[4]; while improving shoot quality,no negative effect
